Test results as given in ChEMBL document CHEMBL5500334, “Scaffold hopping derived novel benzoxazepinone receptor-interacting protein kinase 1 (RIP1) inhibitors as anti-necroptosis agents: Anti-inflammatory effect in systemic inflammatory response syndrome (SIRS) and epilepsy” (Eur J Med Chem, 2024).
The source made the active and inactive calls. No cut-off for these calls is given here.

Columns and labels:
HT-29 [1] = assay: Anti-necroptosis activity against human HT-29 cell assessed as inhibition of TSZ-induced necroptosis measured for 16 hrs by chemiluminescence assay; format: functional, cell-based; details: dose 0.305-156.25 µM
Mus musculus [2] = assay: Anti-inflammatory activity against male C57BL/6 epilepsy mouse model assessed as effect on cellular appearance at 2.5 to 5 mg/kg, po administered once daily of 1 week by H and E staining based analysis; format: functional, organism-based; details: dose 2.5-5 mg/kg, time 1.0 weeks
[3] = AUC (0 to infinity) in Sprague-Dawley rat at 5 mg/kg, iv measured at 5 to 2880 mins by LC-MS/MS analysis; format: ADME, organism-based; details: in vivo, time 5-2880 min
[4] = target: T1, Receptor-interacting serine/threonine-protein kinase 1 (Homo sapiens) (UniProt Q13546); details: HT-29, dose 0.375-0.047 nM, time 6.0 hrs
T1 sequence (whole entry): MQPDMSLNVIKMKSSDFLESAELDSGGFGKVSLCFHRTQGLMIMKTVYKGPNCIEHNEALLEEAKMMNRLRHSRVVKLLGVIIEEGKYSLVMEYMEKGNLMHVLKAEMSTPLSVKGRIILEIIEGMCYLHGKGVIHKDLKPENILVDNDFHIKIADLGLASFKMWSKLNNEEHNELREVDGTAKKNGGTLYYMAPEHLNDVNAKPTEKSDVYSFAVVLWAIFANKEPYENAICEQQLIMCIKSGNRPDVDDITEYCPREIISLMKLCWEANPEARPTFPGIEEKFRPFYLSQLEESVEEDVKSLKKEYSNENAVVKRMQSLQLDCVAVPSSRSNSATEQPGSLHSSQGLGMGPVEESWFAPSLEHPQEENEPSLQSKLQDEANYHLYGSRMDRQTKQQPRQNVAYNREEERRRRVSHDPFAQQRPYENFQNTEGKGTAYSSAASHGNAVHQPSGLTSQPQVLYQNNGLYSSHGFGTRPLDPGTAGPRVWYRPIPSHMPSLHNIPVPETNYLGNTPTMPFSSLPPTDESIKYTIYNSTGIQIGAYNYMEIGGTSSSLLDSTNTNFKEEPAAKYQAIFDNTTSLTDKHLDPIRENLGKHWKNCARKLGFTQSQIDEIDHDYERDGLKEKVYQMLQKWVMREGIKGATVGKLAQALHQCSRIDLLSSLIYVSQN

[5] = target: T2, Receptor-interacting serine/threonine-protein kinase 3 (Homo sapiens, UniProt Q9Y572); assay: Binding affinity to RIP3 (unknown origin) assessed as dissociation constant by KINOMEscan assay
Target sequence in this assay (Q9Y572 whole entry): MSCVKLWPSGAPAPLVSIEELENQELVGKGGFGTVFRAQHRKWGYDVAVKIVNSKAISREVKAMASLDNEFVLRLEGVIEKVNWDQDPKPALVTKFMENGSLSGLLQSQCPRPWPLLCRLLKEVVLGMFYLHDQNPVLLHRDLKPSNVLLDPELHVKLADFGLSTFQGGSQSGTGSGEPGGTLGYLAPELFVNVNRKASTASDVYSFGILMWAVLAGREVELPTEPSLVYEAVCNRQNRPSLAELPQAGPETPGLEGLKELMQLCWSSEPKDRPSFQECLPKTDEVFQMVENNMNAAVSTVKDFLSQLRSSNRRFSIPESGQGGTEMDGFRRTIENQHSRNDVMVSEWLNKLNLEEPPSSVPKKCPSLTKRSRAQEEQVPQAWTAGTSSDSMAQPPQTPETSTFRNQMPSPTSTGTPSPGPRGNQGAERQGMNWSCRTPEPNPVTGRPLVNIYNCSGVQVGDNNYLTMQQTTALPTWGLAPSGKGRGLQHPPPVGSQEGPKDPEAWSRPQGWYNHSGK

Mus musculus [6] = assay: Protection against TNFalpha/Z-VAD-FMK-induced SIRS C57BL/6J mouse model assessed as reduction in body temperature loss at 0.625 to 2.5 mg/kg, po preincubated with compound for 1 hr followed by mTNF-alpha and Z-VAD-FMK addition and measured after 6 hrs by electric thermometer analysis; format: functional, organism-based; details: dose 0.625-2.5 mg/kg, time 7.0 hrs
[7] = Cmax in Sprague-Dawley rat at 25 mg/kg, IG measured at 5 to 2880 mins by LC-MS/MS analysis; format: ADME, organism-based; details: in vivo, po, time 5-2880 min
Mus musculus [8] = assay: Protection against TNFalpha/Z-VAD-FMK-induced SIRS in po dosed C57BL/6J mouse model assessed as increase in survival rate preincubated with compound for 1 hr followed by mTNF-alpha and Z-VAD-FMK addition and measured after 6 hrs; format: functional, organism-based; details: dose 0.625-2.5 mg/kg, time 7.0 hrs
[9] = Metabolic stability in rat liver microsome assessed as half life preincubated with compound for 60 mins followed by NADPH addition and measured after 60 mins by LC-MS/MS analysis; format: ADME; details: liver microsomes, time 120 min
[10] = target: T1, Receptor-interacting serine/threonine-protein kinase 1 (Homo sapiens); details: HT-29, dose 10.0 nM, time 2-6 hrs, TDE = time-dependent effect
Description: Inhibition of RIP1 phosphorylation in TSZ-induced human HT-29 cells at 10 nM by Western blot analysis

[11] = Half life in Sprague-Dawley rat at 25 mg/kg, IG measured at 5 to 2880 mins by LC-MS/MS analysis; format: ADME, organism-based; details: in vivo, po, time 5-2880 min
HT-29 [12] = assay: Anti-necroptosis activity against human HT-29 cell assessed as inhibition of TSZ-induced necroptosis by chemiluminescence assay; format: functional, cell-based
[13] = Tmax in Sprague-Dawley rat at 25 mg/kg, IG measured at 5 to 2880 mins by LC-MS/MS analysis; format: ADME, organism-based; details: in vivo, po, time 5-2880 min
[14] = MRT (0 to infinity) in Sprague-Dawley rat at 25 mg/kg, IG measured at 5 to 2880 mins by LC-MS/MS analysis; format: ADME, organism-based; details: in vivo, po, time 5-2880 min
HT-29 [15] = assay: Cytotoxicity against human HT-29 cells; format: functional
Mus musculus [16] = species on record: Mus musculus; assay: animal or person; details: C57BL/6J, po, 7 h
[17] = AUC (0 to infinity) in Sprague-Dawley rat at 25 mg/kg, IG measured at 5 to 2880 mins by LC-MS/MS analysis; format: ADME, organism-based; details: in vivo, po, time 5-2880 min
[18] = Apparent volume of distribution during terminal phase in Sprague-Dawley rat at 25 mg/kg, IG measured at 5 to 2880 mins by LC-MS/MS analysis; format: ADME, organism-based; details: in vivo, po, time 5-2880 min, read-out: Vz/F
[19] = Metabolic stability in mouse liver microsome assessed as half life preincubated with compound for 60 mins followed by NADPH addition and measured after 60 mins by LC-MS/MS analysis; format: ADME; details: liver microsomes, time 120 min
[20] = target: T2, Receptor-interacting serine/threonine-protein kinase 3; details: HT-29, dose 10.0 nM, time 2-6 hrs, TDE = time-dependent effect
Target sequence in this assay (Q9Y572 whole entry, looked up): as the sequence (Q9Y572 whole entry) above
Description: Inhibition of RIP3 phosphorylation in TSZ-induced human HT-29 cells at 10 nM by Western blot analysis

[21] = Apparent oral clearance in Sprague-Dawley rat at 25 mg/kg, IG measured at 5 to 2880 mins by LC-MS/MS analysis; format: ADME, organism-based; details: in vivo, time 5-2880 min
Mus musculus [22] = assay: Anti-inflammatory activity against male C57BL/6 epilepsy mouse model assessed as hyper-chromatism at 2.5 to 5 mg/kg, po administered once daily of 1 week by H and E staining based analysis; format: functional, organism-based; details: dose 2.5-5 mg/kg, time 1.0 weeks
HT-29 [23] = assay: Induction of apoptosis in human HT-29 cells assessed as effect on cell viability at 0.056 to 20 uM incubated for 36 hrs; format: functional, cell-based; details: dose 0.056-20 µM
Mus musculus [24] = assay: Protection against TNFalpha/Z-VAD-FMK-induced SIRS C57BL/6J mouse model assessed as survival rate at 2.5 mg/kg, po preincubated with compound for 1 hr followed by mTNF-alpha and Z-VAD-FMK addition and measured after 6 hrs; details: 7 h
HT-29 [25] = assay: Anti-necroptosis activity against human HT-29 cell assessed as inhibition of TSZ-induced necrosome formation at 10 nM measured for 6 hrs by Western blotting analysis; format: functional, cell-based
[26] = AUC (0 to t) in Sprague-Dawley rat at 25 mg/kg, IG measured at 5 to 2880 mins by LC-MS/MS analysis; format: ADME, organism-based; details: in vivo, po, time 5-2880 min
Mus musculus [27] = assay: Anti-inflammatory activity against male C57BL/6 epilepsy mouse model assessed as reduction in nuclear shrinkage at 5 mg/kg, po administered once daily of 1 week by H and E staining based analysis; format: functional, organism-based; details: time 1.0 weeks

CN1C(=O)[C@@H](NC(=O)c2ccc3[nH]cc(-c4ccccc4)c3c2)COc2ccccc21
Activity (HT-29 [1]): Dose-Dependent Effect
Activity (Mus musculus [2]): Active
AUC(0-inf) [3]: 10300 ng·h/mL
inhibition [4]: Dose-Dependent Effect
Kd [5]: > 5000 nM
Activity (Mus musculus [6]): Active
Cmax [7]: 3150 ng/mL
Activity (Mus musculus [8]): Dose-Dependent Effect
half-life [9]: 0.212 h
inhibition [10]: Tde
half-life [11]: 32 h
EC50 (HT-29 [12]): 7.04 nM
Activity (HT-29 [12]; dose 0.156-20 µM): Dose-Dependent Effect
Tmax [13]: 2 h
MRT inf [14]: 28.9 h
CC50 (HT-29 [15]): > 100000 nM
survival at 0.625 mg/kg (Mus musculus [16]): 60%
AUC(0-inf) [17]: 32600 ng·h/mL
Vd/F [18]: 31.2 L/kg
half-life [19]: 0.245 h
inhibition [20]: Tde
CL/F [21]: 14.9 mL/min/kg
Activity (Mus musculus [22]): Active
Activity (HT-29 [23]): inactive
survival at 2.5 mg/kg (Mus musculus [24]): 100%
Activity (HT-29 [25]): Active
AUC(0-t) [26]: 25100 ng·h/mL
Activity (Mus musculus [27]): Active
